According to ChEMBL document CHEMBL1201862, “PubChem BioAssay data set” (2004):
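How tested: cells in 96-well plates exposed to compound for 48 hours at five concentrations. GI50 marks 50% less growth.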 The source made the active and inactive calls. Rule as the data show it: active = GI50 up to about 1.1 µM and inactive = higher.

Assays:
Experiment in all cases: NCI anticancer screen, dose series, 48 h
SF-268 = system: SF-268
TK-10 = system: TK-10
SNB-75 = system: SNB-75
Hs-578T = system: Hs-578T
MDA-N = system: MDA-N
COLO 205 = system: COLO 205
SK-MEL-5 = system: SK-MEL-5
SF-295 = system: SF-295
SN12C = system: SN12C
OVCAR-8 = system: OVCAR-8
CAKI-1 = system: CAKI-1
SK-OV-3 = system: SK-OV-3
IGROV-1 = system: IGROV-1
HCC 2998 = system: HCC 2998
Malme-3M = system: Malme-3M
HOP-62 = system: HOP-62
OVCAR-4 = system: OVCAR-4
MCF7 = system: MCF7
NCI-H226 = system: NCI-H226
MDA-MB-231 = system: MDA-MB-231
DU-145 = system: DU-145
OVCAR-3 = system: OVCAR-3
786-0 = system: 786-0
EKVX = system: EKVX
NCI-H23 = system: NCI-H23
HCT-116 = system: HCT-116
K562 = system: K562
A549 = system: A549
RXF 393 = system: RXF 393
NCI-H460 = system: NCI-H460
PC-3 = system: PC-3
A498 = system: A498
SK-MEL-28 = system: SK-MEL-28
UACC-62 = system: UACC-62
UACC-257 = system: UACC-257
KM12 = system: KM12
NCI/ADR-RES = system: NCI/ADR-RES
OVCAR-5 = system: OVCAR-5
ACHN = system: ACHN
CCRF-CEM = system: CCRF-CEM
BT-549 = system: BT-549
MDA-MB-435 = system: MDA-MB-435
SW-620 = system: SW-620
T47D = system: T47D
RPMI-8226 = system: RPMI-8226
UO-31 = system: UO-31
U-251 = system: U-251
NCI-H522 = system: NCI-H522
SNB-19 = system: SNB-19
HT-29 = system: HT-29
SR = system: SR
HCT-15 = system: HCT-15
M14 = system: M14
SK-MEL-2 = system: SK-MEL-2
MOLT-4 = system: MOLT-4
LOX IMVI = system: LOX IMVI
HL-60 = system: HL-60
SF-539 = system: SF-539
HOP-92 = system: HOP-92

Compound: Cc1c(CN2CCN(C)CC2)c(CN2CCN(C)CC2)c(C)n1-c1ccc(Cl)cc1
- GI50 (SF-268): 44.4 µM (inactive)
- GI50 (TK-10): 17.5 µM (inactive)
- GI50 (SNB-75): 25.9 µM (inactive)
- GI50 (Hs-578T): 24 µM (inactive)
- GI50 (MDA-N): 21 µM (inactive)
- GI50 (COLO 205): 20.4 µM (inactive)
- GI50 (SK-MEL-5): 16.8 µM (inactive)
- GI50 (SF-295): 21.2 µM (inactive)
- GI50 (SN12C): > 100 µM (inactive)
- GI50 (OVCAR-8): 19.9 µM (inactive)
- GI50 (CAKI-1): 25.1 µM (inactive)
- GI50 (SK-OV-3): > 100 µM (inactive)
- GI50 (IGROV-1): 31.2 µM (inactive)
- GI50 (HCC 2998): 39.7 µM (inactive)
- GI50 (Malme-3M): 20.9 µM (inactive)
- GI50 (HOP-62): 35.4 µM (inactive)
- GI50 (OVCAR-4): 79.1 µM (inactive)
- GI50 (MCF7): 39.5 µM (inactive)
- GI50 (NCI-H226): 33.6 µM (inactive)
- GI50 (MDA-MB-231): 68.5 µM (inactive)
- GI50 (DU-145): > 100 µM (inactive)
- GI50 (OVCAR-3): 94.8 µM (inactive)
- GI50 (786-0): 16.9 µM (inactive)
- GI50 (EKVX): 72.4 µM (inactive)
- GI50 (NCI-H23): 54.2 µM (inactive)
- GI50 (HCT-116): 27.7 µM (inactive)
- GI50 (K562): 23.4 µM (inactive)
- GI50 (A549): 30.4 µM (inactive)
- GI50 (RXF 393): 17.1 µM (inactive)
- GI50 (NCI-H460): 50.7 µM (inactive)
- GI50 (PC-3): 29.4 µM (inactive)
- GI50 (A498): 13.6 µM (inactive)
- GI50 (SK-MEL-28): 19.5 µM (inactive)
- GI50 (UACC-62): 16.7 µM (inactive)
- GI50 (UACC-257): 14.2 µM (inactive)
- GI50 (KM12): 34 µM (inactive)
- GI50 (NCI/ADR-RES): > 100 µM (inactive)
- GI50 (OVCAR-5): 53.7 µM (inactive)
- GI50 (ACHN): 96.8 µM (inactive)
- GI50 (CCRF-CEM): 19.3 µM (inactive)
- GI50 (BT-549): 45 µM (inactive)
- GI50 (MDA-MB-435): 25.1 µM (inactive)
- GI50 (SW-620): 54.2 µM (inactive)
- GI50 (T47D): 19.2 µM (inactive)
- GI50 (RPMI-8226): 47.2 µM (inactive)
- GI50 (UO-31): 26.9 µM (inactive)
- GI50 (U-251): 40.2 µM (inactive)
- GI50 (NCI-H522): 20.5 µM (inactive)
- GI50 (SNB-19): > 100 µM (inactive)
- GI50 (HT-29): 18.2 µM (inactive)
- GI50 (SR): 17.4 µM (inactive)
- GI50 (HCT-15): 47 µM
- GI50 (M14): 14.6 µM (inactive)
- GI50 (SK-MEL-2): 21.3 µM (inactive)
- GI50 (MOLT-4): 30.3 µM (inactive)

Compound: COC1=C(OC)C(=O)C(Cc2c(C)nc3sc(C)cn23)=C(C)C1=O
- GI50 (SF-268): 17.7 µM (inactive)
- GI50 (TK-10): 18.5 µM (inactive)
- GI50 (Hs-578T): 23.9 µM (inactive)
- GI50 (MDA-N): 18 µM (inactive)
- GI50 (COLO 205): 19.3 µM (inactive)
- GI50 (SK-MEL-5): 15.2 µM (inactive)
- GI50 (SF-295): 19.1 µM (inactive)
- GI50 (SN12C): 16.9 µM (inactive)
- GI50 (OVCAR-8): 17.1 µM (inactive)
- GI50 (CAKI-1): 20.4 µM (inactive)
- GI50 (SK-OV-3): 22 µM (inactive)
- GI50 (IGROV-1): 17.4 µM (inactive)
- GI50 (HCC 2998): 29 µM (inactive)
- GI50 (Malme-3M): 14.9 µM (inactive)
- GI50 (HOP-62): 18.5 µM (inactive)
- GI50 (OVCAR-4): 10.9 µM (inactive)
- GI50 (LOX IMVI): 17.4 µM (inactive)
- GI50 (MCF7): 20.5 µM (inactive)
- GI50 (MDA-MB-231): 14.7 µM (inactive)
- GI50 (DU-145): 20.2 µM (inactive)
- GI50 (OVCAR-3): 17.5 µM (inactive)
- GI50 (786-0): 19.7 µM (inactive)
- GI50 (EKVX): 16.7 µM (inactive)
- GI50 (NCI-H23): 15 µM (inactive)
- GI50 (HCT-116): 19.8 µM (inactive)
- GI50 (K562): 16.9 µM (inactive)
- GI50 (A549): 19.5 µM (inactive)
- GI50 (RXF 393): 20.9 µM (inactive)
- GI50 (NCI-H460): 20 µM (inactive)
- GI50 (PC-3): 23.4 µM (inactive)
- GI50 (A498): 33 µM (inactive)
- GI50 (SK-MEL-28): 16.1 µM (inactive)
- GI50 (UACC-62): 14 µM (inactive)
- GI50 (UACC-257): 12.8 µM (inactive)
- GI50 (KM12): 26.3 µM (inactive)
- GI50 (NCI/ADR-RES): 15.9 µM (inactive)
- GI50 (OVCAR-5): 22.2 µM (inactive)
- GI50 (ACHN): 15.1 µM (inactive)
- GI50 (CCRF-CEM): 7.13 µM (inactive)
- GI50 (BT-549): 16.9 µM (inactive)
- GI50 (MDA-MB-435): 17.9 µM (inactive)
- GI50 (SW-620): 25.5 µM (inactive)
- GI50 (T47D): 34.1 µM (inactive)
- GI50 (RPMI-8226): 16.3 µM (inactive)
- GI50 (HL-60): 11.6 µM (inactive)
- GI50 (UO-31): 16.8 µM (inactive)
- GI50 (U-251): 19.8 µM (inactive)
- GI50 (NCI-H522): 17.4 µM (inactive)
- GI50 (SNB-19): 19 µM (inactive)
- GI50 (HT-29): 20.2 µM (inactive)
- GI50 (SR): 17.9 µM (inactive)
- GI50 (HCT-15): 26.1 µM
- GI50 (M14): 17 µM (inactive)
- GI50 (SF-539): 17.4 µM (inactive)
- GI50 (SK-MEL-2): 17.4 µM (inactive)
- GI50 (MOLT-4): 1.7 µM (inactive)

Compound: COC(=O)c1cc(C(=CCC[C@H]2CC[C@@]3(C)C(CCC4C3CC[C@@]3(C)C4CC[C@@H]3C(C)CCCC(C)C)C2)c2cc(Cl)c(OC(=O)c3ccccc3)c(C(=O)OC)c2)cc(Cl)c1OC(=O)c1ccccc1 (some centres undefined)
- GI50 (SF-268): > 10 µM (inactive)
- GI50 (TK-10): > 10 µM (inactive)
- GI50 (SNB-75): > 10 µM (inactive)
- GI50 (Hs-578T): > 10 µM (inactive)
- GI50 (MDA-N): > 10 µM (inactive)
- GI50 (COLO 205): > 10 µM (inactive)
- GI50 (SK-MEL-5): > 10 µM (inactive)
- GI50 (SF-295): > 10 µM (inactive)
- GI50 (SN12C): > 10 µM (inactive)
- GI50 (OVCAR-8): > 10 µM (inactive)
- GI50 (CAKI-1): > 10 µM (inactive)
- GI50 (SK-OV-3): > 10 µM (inactive)
- GI50 (IGROV-1): > 10 µM (inactive)
- GI50 (HCC 2998): > 10 µM (inactive)
- GI50 (Malme-3M): > 10 µM (inactive)
- GI50 (HOP-62): > 10 µM (inactive)
- GI50 (OVCAR-4): > 10 µM (inactive)
- GI50 (LOX IMVI): > 10 µM (inactive)
- GI50 (MCF7): > 10 µM (inactive)
- GI50 (NCI-H226): > 10 µM (inactive)
- GI50 (MDA-MB-231): > 10 µM (inactive)
- GI50 (DU-145): > 10 µM (inactive)
- GI50 (OVCAR-3): > 10 µM (inactive)
- GI50 (786-0): > 10 µM (inactive)
- GI50 (EKVX): > 10 µM (inactive)
- GI50 (NCI-H23): > 10 µM (inactive)
- GI50 (HCT-116): > 10 µM (inactive)
- GI50 (K562): > 10 µM (inactive)
- GI50 (A549): > 10 µM (inactive)
- GI50 (RXF 393): > 10 µM (inactive)
- GI50 (NCI-H460): > 10 µM (inactive)
- GI50 (PC-3): > 10 µM (inactive)
- GI50 (SK-MEL-28): > 10 µM (inactive)
- GI50 (UACC-62): > 10 µM (inactive)
- GI50 (UACC-257): > 10 µM (inactive)
- GI50 (KM12): > 10 µM (inactive)
- GI50 (NCI/ADR-RES): > 10 µM (inactive)
- GI50 (OVCAR-5): > 10 µM (inactive)
- GI50 (ACHN): > 10 µM (inactive)
- GI50 (CCRF-CEM): > 10 µM (inactive)
- GI50 (BT-549): > 10 µM (inactive)
- GI50 (MDA-MB-435): > 10 µM (inactive)
- GI50 (SW-620): > 10 µM (inactive)
- GI50 (T47D): > 10 µM (inactive)
- GI50 (RPMI-8226): > 10 µM (inactive)
- GI50 (HL-60): > 10 µM (inactive)
- GI50 (HOP-92): > 10 µM (inactive)
- GI50 (UO-31): > 10 µM (inactive)
- GI50 (U-251): > 10 µM (inactive)
- GI50 (NCI-H522): > 10 µM (inactive)
- GI50 (SNB-19): > 10 µM (inactive)
- GI50 (HT-29): > 10 µM (inactive)
- GI50 (SR): > 10 µM (inactive)
- GI50 (HCT-15): > 10 µM
- GI50 (M14): > 10 µM (inactive)
- GI50 (SF-539): > 10 µM (inactive)
- GI50 (SK-MEL-2): > 10 µM (inactive)
- GI50 (MOLT-4): > 10 µM (inactive)
